According to patent US7833983B2, “Analytical method and kit thereof” (Phadia, AB, priority 2003, dated 2010):
Several values for one entry are separate records, joined by “and”; a condition that tells them apart may be missing. Equal values may be shown once. Non-standard residues stand in square brackets, D forms with d. No end group written: not given here. Arg(Me2s) = CN=C(NC)NCCC[C@H](N)C(=O)O

Experiments:
anti-Sm antibodies [1] = assay: Correlation study: anti-S33 ELISA versus commercially available anti-Sm antibody tests; format: binding, human; conditions: for Reactivity of control serum: suggested cut-off 13
Description: Randomly selected SLE sera (n=50) and various controls (n=100) were tested using the commercially available anti-Sm antibody tests from different suppliers (Sm test A—Sm Test D) and the results were compared to the findings of the anti-S33 ELISA test.

anti-Sm antibodies [2] = assay: Epitope-mapping with immobilized oligopeptides (peptide arrays) probed with anti-Sm sera; format: binding, human; conditions: for number of anti-Sm sera recognizing the peptide: panel of five anti-Sm sera (#36, #37, #31, #84, #Sm), serum 1:100, ECL detection
From the text: The published sequences of SmD1, P13641, (Rokeach et al., 1988) and SmD3, P43331, (Lehmeier et al., 1994) were used to synthesize overlapping 15 mer peptides with a pipetting robot according to the protocol described by Gausepohl and Behn (2002). The C-terminal extensions of both polypeptides were synthesized with an offset of 2 amino acids (13 amino acids overlap). Each arginine containing peptide was synthesized as three variants, with natural arginine, with sDMA or with asymmetrical dimethylarginine (asDMA) at the respective positions. Later on, a highly reactive peptide of SmD3 was synthesized with certain combinations of natural arginine and sDMA. Following completion of the peptide synthesis non-specific binding sites were blocked by over-night incubation of the membranes in blocking buffer (BB) at room temperature (RT). After one washing step membranes were incubated with serum samples at a dilution of 1:100 in BB for 2 h at RT. Unbound antibodies were removed by three washing steps. For detection peroxidase conjugated goat-anti-human IgG antibody was diluted 1:5000 in BB and incubated for 75 min (RT). Superfluous secondary antibodies were removed by three washing steps. Finally, bound antibodies were visualized using the enhanced chemoluminiscence (ECL) detection-system.
Epitope fine-mapping of the C-terminal extensions of SmD1 and D3. To evaluate the effect of arginine-dimethylation on the antigenicity of SmD1 and SmD3 and to map relevant epitopes on both polypeptides a panel of anti-Sm sera was tested with peptide arrays (15 mer, 2 offset) covering the C-terminal region of SmD1 (P13641) and SmD3 (P43331).

[3] = tested on: anti-centromere antibodies (ACA; serum CEN); assay: Epitope-mapping with immobilized oligopeptides (peptide arrays) probed with control sera (e.g. CEN); format: binding, human; conditions: serum 1:100
From the text: (§1) Sera (n=628) were collected from patients suffering from systemic lupus erytlhrematosus (SLE; n=176), rheumatoid arthritis (RA, n=86), Sjögren syndrome (SS, n=24); mixed connective tissue disease (MCTD, n=26), scleroderma (SSc, n=26) and polymyositis/dermatomyositis (PM/DM, n=13). All patients were classified according to the ACR-criteria for each disease (Tan et al., 1982; Arnett et al., 1988). To further assess the assay specificity, we analyzed a group of sera from patients with infection diseases (n=77) including hepatitis-C (HCV; n=30), cytomegalo (CMV; n=22) and Epstein-Barr Virus (EBV; n=25) as well as from 192 healthy blood donors. All sera were stored at −80° C. until use. For epitope-mapping a panel of five sera containing anti-Sm antibodies was used. As negative controls autoimmune sera with other antibody specificities than anti-Sm were selected.
The published sequences of SmD1, P13641, (Rokeach et al., 1988) and SmD3, P43331, (Lehmeier et al., 1994) were used to synthesize overlapping 15 mer peptides with a pipetting robot according to the protocol described by Gausepohl and Behn (2002). The C-terminal extensions of both polypeptides were synthesized with an offset of 2 amino acids (13 amino acids overlap). […]

pI of the peptide = format: physicochemical
anti-S33 antibodies = assay: S33-peptide ELISA (Varelisa protocol) with patient and control sera; format: binding, human
From the text: as §1
Preparation of ELISA-plates. The lyophilized S33 peptide was used to prepare a stock solution of 10 μg/μl, which was stored in aliquots at −20° C. until use. Binding of the peptide to ELISA plates was carried out using 2.5 μg/ml of the peptide in coating buffer in a final volume of 120 μl per well. The coating procedure was carried out at 15° C. for 20 h. Unspecific binding sites were blocked with blocking solution. After discarding the blocking solution solid phases were dried at 37° C. for 2 h and sealed.
The assay was performed according to the general protocol of the Varelisa® system (Pharmacia Diagnostics, Freiburg). […] The cut-off was technically set to 13 U/ml after ROC-analysis. PPVs and NPVs were calculated at different cut-off values. […]
A 15 amino acid soluble peptide displaying highest sensitivity and specificity in the SPOT-assay (^108AARGsdRGRGMGRGNIF^122) (SEQ ID NO: 1) was synthesized for technical reasons with an additional Cys at the C-terminus. This peptide was subsequently used to develop an ELISA system based on the general protocol of the Varelisa® tests (Pharmacia, Freiburg, Germany).

Lupus-prone mice = conditions: injection; peptide fused to a carrier protein; Riemekasten et al., 2001; cited from earlier work
[4] = Rheumatic diseases (181), cut-off 13 U/ml
[5] = randomly selected SLE sera (n = 101)

Substance: AARG sdR GRGMGRGNIF (AARG[Arg(Me2s)]GRGMGRGNIF) [S33, SmD3 aa 108-122 mimotope peptide with a single symmetrical dimethylarginine at position 112; ELISA version with additional C-terminal Cys]
- % of SLE sera positive (anti-Sm antibodies [1]; 50 randomly selected SLE sera): 12%
- number of SLE sera positive (anti-Sm antibodies [1]; 50 randomly selected SLE sera): 6
- % of controls positive (anti-Sm antibodies [1]; 100 controls): 0%
- number of controls positive (anti-Sm antibodies [1]; 100 controls): none
- Reactivity of control serum (anti-Sm antibodies [1]; serum No. 105, ID 25516, MCTD): 3.0 U/ml
- Reactivity of control serum (anti-Sm antibodies [1]; serum No. 107, ID 25518, MCTD): 1.0 U/ml
- Reactivity of control serum (anti-Sm antibodies [1]; serum No. 108, ID 25519, MCTD): 0.0 U/ml
- Reactivity of control serum (anti-Sm antibodies [1]; serum No. 110, ID 25521, MCTD): 0.5 U/ml
- Reactivity of control serum (anti-Sm antibodies [1]; serum No. 112, ID 25523, MCTD): 0.0 U/ml
- Reactivity of control serum (anti-Sm antibodies [1]; serum No. 121, ID 25532, MCTD): 2.6 U/ml
- Reactivity of control serum (anti-Sm antibodies [1]; serum No. 123, ID 25534, MCTD): 1.1 U/ml
- Reactivity of control serum (anti-Sm antibodies [1]; serum No. 126, ID 25537, MCTD): 3.2 U/ml
- Reactivity of control serum (anti-Sm antibodies [1]; serum No. 128, ID 25539, MCTD): 0.7 U/ml
- Reactivity of control serum (anti-Sm antibodies [1]; serum No. 129, ID 25540, MCTD): 4.1 U/ml
- Reactivity of control serum (anti-Sm antibodies [1]; serum No. 132, ID 25543, MCTD): 2.4 U/ml
- Reactivity of control serum (anti-Sm antibodies [1]; serum No. 133, ID 25544, MCTD, SLE): 9.9 U/ml
- Reactivity of control serum (anti-Sm antibodies [1]; serum No. 137, ID 25448, SSc): 2.2 U/ml
- Reactivity of control serum (anti-Sm antibodies [1]; serum No. 145, ID 25456, MCTD): 1.1 U/ml
- number of anti-Sm sera recognizing the peptide (anti-Sm antibodies [2]): all of the five
- antibody binding of control sera [3]: not with the controls
- pI (pI of the peptide): > 12.88
- Mean value (anti-S33 antibodies; CMV (22)): 0.8 U/ml
- Top value (anti-S33 antibodies; CMV (22)): 3.2 U/ml
- No. of anti-S33-positive sera (anti-S33 antibodies; CMV (22), cut-off 13 U/ml): 0
- Mean value (anti-S33 antibodies; EBV (25)): 0.78 U/ml
- Top value (anti-S33 antibodies; EBV (25)): 3.3 U/ml
- Mean value (anti-S33 antibodies; HCV (30)): 0.42 U/ml
- Top value (anti-S33 antibodies; HCV (30)): 1.1 U/ml
- No. of anti-S33-positive sera (anti-S33 antibodies; HCV (30), cut-off 13 U/ml): 0
- Mean value (anti-S33 antibodies; Healthy individuals (192)): 2.2 U/ml and 2.21 U/ml
- Top value (anti-S33 antibodies; Healthy individuals (192)): 11.5 U/ml
- No. of anti-S33-positive sera (anti-S33 antibodies; Healthy individuals (192), cut-off 13 U/ml): 0
- Mean value (anti-S33 antibodies; Infectious diseases (77)): 0.67 U/ml
- Top value (anti-S33 antibodies; Infectious diseases (77)): 3.3 U/ml
- No. of anti-S33-positive sera (anti-S33 antibodies; Infectious diseases (77), cut-off 13 U/ml): 0
- Mean value (anti-S33 antibodies; MCTD (26)): 3.1 U/ml
- Top value (anti-S33 antibodies; MCTD (26)): 12.8 U/ml
- No. of anti-S33-positive sera (anti-S33 antibodies; MCTD (26), cut-off 13 U/ml): 0
- Mean value (anti-S33 antibodies; PM/DM (13)): 2.8 U/ml
- Top value (anti-S33 antibodies; PM/DM (13)): 9.6 U/ml
- No. of anti-S33-positive sera (anti-S33 antibodies; PM/DM (13), cut-off 13 U/ml): 0
- Mean value (anti-S33 antibodies; RA (86)): 1.6 U/ml
- Top value (anti-S33 antibodies; RA (86)): 24.6 U/ml
- % of anti-S33-positive sera (anti-S33 antibodies; RA (86), cut-off 13 U/ml): (1.2) %
- No. of anti-S33-positive sera (anti-S33 antibodies; RA (86), cut-off 13 U/ml): 1
- Mean value (anti-S33 antibodies; Rheumatic diseases (181)): 2.2 U/ml
- Top value (anti-S33 antibodies; Rheumatic diseases (181)): 24.6 U/ml
- % of anti-S33-positive sera (anti-S33 antibodies; [4]): (0.6) %
- No. of anti-S33-positive sera (anti-S33 antibodies; [4]): 1
- Mean value (anti-S33 antibodies; SLE (n = 176)): 43 U/ml and 43.0 U/ml
- No. of anti-S33-positive sera (anti-S33 antibodies; SLE (n = 176), cut-off 13 U/ml): 28 and 15
- anti-S33 peptide reactivity (anti-S33 antibodies; SLE patient #89, anti-SmD negative): 15.4 units
- anti-S33 peptide reactivity (anti-S33 antibodies; SLE patient #92, anti-SmD negative): 21.3 units
- anti-S33 peptide reactivity (anti-S33 antibodies; SLE patient #9811, anti-SmD negative): 13.9 units
- anti-S33 peptide reactivity (anti-S33 antibodies; SLE patient #20627, anti-SmD negative): 41.3 units
- immunoresponse to the new Sm antigen (S33) (anti-S33 antibodies; SLE patient, beginning of the 18 month follow-up study, inactive phase of disease): 337.5 U/ml
- Mean value (anti-S33 antibodies; SSc (26)): 2.4 U/ml
- Top value (anti-S33 antibodies; SSc (26)): 4.3 U/ml
- No. of anti-S33-positive sera (anti-S33 antibodies; SSc (26), cut-off 13 U/ml): 0
- reactivity range (anti-S33 antibodies; blood donors): 0.4-11.5 U/ml
- % of control sera tested positive (anti-S33 antibodies; controls (n=449), cut-off 13 U/ml): 0.2%
- Mean value (anti-S33 antibodies; pSS (24)): 1.9 U/ml
- Top value (anti-S33 antibodies; pSS (24)): 3.9 U/ml
- No. of anti-S33-positive sera (anti-S33 antibodies; pSS (24), cut-off 13 U/ml): 0
- S33+ among sera with Aab to La (%) (anti-S33 antibodies; [5]): 18.2%
- S33+ among sera with Aab to La (number) (anti-S33 antibodies; [5]): 4/22
- S33+ among sera with Aab to Ro-52 (%) (anti-S33 antibodies; [5]): 22.7%
- S33+ among sera with Aab to Ro-52 (number) (anti-S33 antibodies; [5]): 5/22
- S33+ among sera with Aab to Ro-60 (%) (anti-S33 antibodies; [5]): 25%
- S33+ among sera with Aab to Ro-60 (number) (anti-S33 antibodies; [5]): 12/48
- S33+ among sera with Aab to SmBB′ (%) (anti-S33 antibodies; [5]): 50%
- S33+ among sera with Aab to SmBB′ (number) (anti-S33 antibodies; [5]): 11/22
- S33+ among sera with Aab to SmD (%) (anti-S33 antibodies; [5]): 68.8%
- S33+ among sera with Aab to SmD (number) (anti-S33 antibodies; [5]): 11/16
- S33+ among sera with Aab to U1-68 kD (%) (anti-S33 antibodies; [5]): 50%
- S33+ among sera with Aab to U1-A (%) (anti-S33 antibodies; [5]): 48%
- S33+ among sera with Aab to U1-A (number) (anti-S33 antibodies; [5]): 12/25
- S33+ among sera with Aab to U1-C (%) (anti-S33 antibodies; [5]): 42.3%
- S33+ among sera with Aab to U1-C (number) (anti-S33 antibodies; [5]): 11/26
- S33+ among sera with Aab to dsDNA (%) (anti-S33 antibodies; [5]): 25.5%
- S33+ among sera with Aab to dsDNA (number) (anti-S33 antibodies; [5]): 13/51
- S33+ among sera with Aab to histone (%) (anti-S33 antibodies; [5]): 26.3%
- S33+ among sera with Aab to histone (number) (anti-S33 antibodies; [5]): 10/38
- S33+ among sera with Aab to β2-Glycoprotein (%) (anti-S33 antibodies; [5]): 25%
- S33+ among sera with Aab to β2-Glycoprotein (number) (anti-S33 antibodies; [5]): 4/16

Substance: KREAVAGRGRGRGRG [compound 10, SmD1 array peptide; text describes glycine and DMA repeats]
- binding of anti-Sm antibodies (in words) (anti-Sm antibodies [2]; anti-SmD sera #36, #37, #31, #84, #Sm, peptide arrays): strong reactivity

Substance: AAsdRGsdRGsdRGMGsdRGNIF (AA[Arg(Me2s)]G[Arg(Me2s)]G[Arg(Me2s)]GMG[Arg(Me2s)]GNIF) [peptide no. 77, SmD3 aa 108-122 with all arginines as sDMA]
- number of anti-Sm sera recognizing the peptide (anti-Sm antibodies [2]): three out of five
- number of anti-Sm sera recognizing the peptide (anti-Sm antibodies [2]; listed as SEQ ID NO: 3): Three out of five

Substance: synthetic peptide corresponding to the C-terminal extension of SmD1: literature SmD1 aa 83-119 peptide (Riemekasten et al., 1998) used in an ELISA (VEPKVKSKKREAVAGRGRGRGRGRGRGRGRGRGGPRR; UniProt P62314 83-119, looked up, fragment)
- effect on the pathogenic process of Lupus-prone mice (Lupus-prone mice): accelerate the pathogenic process
